According to the OligoGym collection:
These antisense oligonucleotides have a phosphorothioate backbone; sugars and methylation of C are not fully specified.

Key:
Conditions in all cases: ASO
GNA12 = molecular target: GNA12
GNAS = molecular target: GNAS
GNA13 = molecular target: GNA13
Further: test concentration or dose not given here.

Sequence | remaining target (mRNA or protein) (fraction of control) (GNAS) | also measured
AAGATGTTCATGGACTCC |  | remaining target (mRNA or protein) (fraction of control) (GNA12): 0.33
AAGTCATGCTCCACAATT |  | remaining target (mRNA or protein) (fraction of control) (GNA12): 0.64
AAGTTGTCCAGGAAGTAC |  | remaining target (mRNA or protein) (fraction of control) (GNA12): 0.44
AATTCAGCTGGCCGATCC |  | remaining target (mRNA or protein) (fraction of control) (GNA12): 0.59
ACAAGAACCCTTGAGCCC |  | remaining target (mRNA or protein) (fraction of control) (GNA12): 0.74
ACACACGGCGGATGTTCTCA | 0.42 | 
ACACGGCGGATGTTCTCAGT | 0.39 | 
ACGGCGGATGTTCTCAGTGT | 0.71 | 
ACGTGGACTTGCCGCTCT |  | remaining target (mRNA or protein) (fraction of control) (GNA12): 0.32
ACTAGGAAAGTAATTCAG |  | remaining target (mRNA or protein) (fraction of control) (GNA12): 0.47
ACTCGCTTCTCCGGCTGA |  | remaining target (mRNA or protein) (fraction of control) (GNA12): 0.85
ACTGAAAGTGAGAGGGAACT | ≥ 1 | 
ACTGCCAAGGAATGCCAA |  | remaining target (mRNA or protein) (fraction of control) (GNA12): ≥ 1
AGCAGGCAGCGGCTGAGG |  | remaining target (mRNA or protein) (fraction of control) (GNA12): 0.93
AGCATGATGTCCTTCAGG |  | remaining target (mRNA or protein) (fraction of control) (GNA12): 0.29
AGCCCTTGAGGATGTTGT |  | remaining target (mRNA or protein) (fraction of control) (GNA12): 0.94
AGCGCAGGTGAAATGAGGGT | ≥ 1 | 
AGGATGTTGTCGAAGATG |  | remaining target (mRNA or protein) (fraction of control) (GNA12): 0.77
AGGTGAAATGAGGGTAGCAG | ≥ 1 | 
AGTGAGAGGGAACTTTTGTG | 0.41 | 
AGTGCTTCTTGATGCTCA |  | remaining target (mRNA or protein) (fraction of control) (GNA12): 0.62
ATATTTATTTCATTTGTTTC | 0.61 | 
ATGATGGAGACGTTGAAG |  | remaining target (mRNA or protein) (fraction of control) (GNA12): ≥ 1

Sequence | remaining target (mRNA or protein) (fraction of control) (GNAS) | also measured
ATGTTCTCAGTGTCCACAGC | 0.58 | 
ATTTATTTCATTTGTTTCTT | ≥ 1 | 
ATTTCATTTGTTTCTTTTAT | 0.76 | 
ATTTGGAACATCTAAGCAAG | 0.66 | 
ATTTGTTTGCTGCTGCTGTT | 0.81 | 
CACAATTCCCTTGGTGGC |  | remaining target (mRNA or protein) (fraction of control) (GNA12): ≥ 1
CACATCCACCATCTTAAA |  | remaining target (mRNA or protein) (fraction of control) (GNA12): ≥ 1
CACCAGGAGGTCCATCTT |  | remaining target (mRNA or protein) (fraction of control) (GNA12): 0.75
CACGGCGGATGTTCTCAGTG | 0.44 | 
CAGAATCCCTCCAGAGTG |  | remaining target (mRNA or protein) (fraction of control) (GNA12): 0.37
CAGCCGGTTGGTGCGCCT |  | remaining target (mRNA or protein) (fraction of control) (GNA12): 0.25
CAGGTGAAATGAGGGTAGCA | ≥ 1 | 
CATGAACAGGATGGACGT |  | remaining target (mRNA or protein) (fraction of control) (GNA12): 0.5
CATGGAACACGAAGCGGA |  | remaining target (mRNA or protein) (fraction of control) (GNA12): 0.57
CATTTGTTTCTTTTATTTCA | 0.65 | 
CATTTTATTTGTTTGCTGCT | 0.65 | 
CCAGCAGCGCGTCGATGT |  | remaining target (mRNA or protein) (fraction of control) (GNA12): 0.29
CCATGCTTCTCATTTTCA |  | remaining target (mRNA or protein) (fraction of control) (GNA12): 0.49
CCCCGCCTTGTTCTCGAA |  | remaining target (mRNA or protein) (fraction of control) (GNA12): 0.85
CCCTGATGCCAGAATCCC |  | remaining target (mRNA or protein) (fraction of control) (GNA12): 0.39
CCGATCCGGTCCAAGTTG |  | remaining target (mRNA or protein) (fraction of control) (GNA12): 0.38
CCGCTGGCCGCCCACATC |  | remaining target (mRNA or protein) (fraction of control) (GNA12): 0.47
CGCAGGTGAAATGAGGGTAG | 0.35 | 

Sequence | remaining target (mRNA or protein) (fraction of control) (GNAS) | also measured
CGGCGGATGTTCTCAGTGTC | 0.32 | 
CTGAATGATGTCACGGCAGT | 0.63 | 
CTGCTGCTGTTTTATTTATT | 0.63 | 
CTTTGGTTGCCTTCTCACTG | 0.55 | 
CTTTTATTTCATTTTATTTG | 0.97 | 
GAATGATGTCACGGCAGTCG | 0.39 | 
GAGCATCAACCAGCACCC |  | remaining target (mRNA or protein) (fraction of control) (GNA13): 0.11
GATCTCCTTGGACTTGCG |  | remaining target (mRNA or protein) (fraction of control) (GNA13): 0.33
GATGTTCTCAGTGTCCACAG | 0.45 | 
GCAAGCAGAATATCTTGT |  | remaining target (mRNA or protein) (fraction of control) (GNA13): 0.5
GCAGGTGAAATGAGGGTAGC | ≥ 1 | 
GCCCGGGTATCAAACGAC |  | remaining target (mRNA or protein) (fraction of control) (GNA13): 0.26
GCCGCCGCCGCCGCCTCG |  | remaining target (mRNA or protein) (fraction of control) (GNA13): ≥ 1
GCCTCGCCACTCGTCAGC |  | remaining target (mRNA or protein) (fraction of control) (GNA13): 0.5
GCGCAGGTGAAATGAGGGTA | 0.9 | 
GCGCTGAATGATGTCACGGC | 0.38 | 
GCGCTGGTCGAAGTCCTG |  | remaining target (mRNA or protein) (fraction of control) (GNA13): 0.7
GCTGAAAACCCGGTTATT |  | remaining target (mRNA or protein) (fraction of control) (GNA13): 0.65
GCTGCTGCTGTTTTATTTAT | 0.43 | 
GCTGCTGTTTTATTTATTTT | 0.75 | 
GGATCCCCTTCAAATTCT |  | remaining target (mRNA or protein) (fraction of control) (GNA13): 0.72
GGGTTCCCTTCTTAGAGCAG | 0.52 | 
GGGTTTCGCAAAATCACTCG | 0.61 | 

Sequence | remaining target (mRNA or protein) (fraction of control) (GNAS) | also measured
GGTTCCCTTCTTAGAGCAGC | ≥ 1 | 
GGTTGCCTTCTCACTGTCTC | 0.58 | 
GGTTTCGCAAAATCACTCGG | 0.41 | 
GTCGATCTCCTTGGACTT |  | remaining target (mRNA or protein) (fraction of control) (GNA13): 0.65
GTGAAATGAGGGTAGCAGTA | ≥ 1 | 
GTGAGAGGGAACTTTTGTGG | 0.72 | 
GTTGCCTTCTCACTGTCTCC | 0.75 | 
GTTGTGATGGAATATAAT |  | remaining target (mRNA or protein) (fraction of control) (GNA13): ≥ 1
GTTTCCTTTCTGATCTCT |  | remaining target (mRNA or protein) (fraction of control) (GNA13): 0.35
GTTTCGCAAAATCACTCGGG | 0.5 | 
GTTTCTTTTATTTCATTTTA | ≥ 1 | 
GTTTGCTGCTGCTGTTTTAT | 0.53 | 
TAAGGGCTTCTGTTGCTG |  | remaining target (mRNA or protein) (fraction of control) (GNA13): 0.55
TACTGAAAGTGAGAGGGAAC | 0.65 | 
TATCCAAGTTATCCAGGA |  | remaining target (mRNA or protein) (fraction of control) (GNA13): 0.48
TATCCTTCACGTCGCGGA |  | remaining target (mRNA or protein) (fraction of control) (GNA13): ≥ 1
TATTGATGTCACACTGTC |  | remaining target (mRNA or protein) (fraction of control) (GNA13): 0.48
TATTTATTTCATTTGTTTCT | ≥ 1 | 
TATTTCATTTGTTTATTTTA | ≥ 1 | 
TATTTGTTTGCTGCTGCTGT | ≥ 1 | 
TCACCAGCCGCTTCACAT |  | remaining target (mRNA or protein) (fraction of control) (GNA13): 0.23
TCACGTTGCTGTAGATGG |  | remaining target (mRNA or protein) (fraction of control) (GNA13): ≥ 1
TCATTTGTTTCTTTTATTTC | 0.85 | 

Sequence | remaining target (mRNA or protein) (fraction of control) (GNAS) | also measured
TCATTTTATTTGTTTGCTGC | 0.75 | 
TCGAAACATTCAAACCAA |  | remaining target (mRNA or protein) (fraction of control) (GNA13): 0.42
TCGAAGTCCTGCCCGTGG |  | remaining target (mRNA or protein) (fraction of control) (GNA13): ≥ 1
TCGCCCGCGCCCAGCAGC |  | remaining target (mRNA or protein) (fraction of control) (GNA13): 0.31
TCTGACCACCTACATCAA |  | remaining target (mRNA or protein) (fraction of control) (GNA13): 0.2
TCTGGTTCTCCAAGTTTA |  | remaining target (mRNA or protein) (fraction of control) (GNA13): 0.25
TCTTATAGCAGGAAGATA |  | remaining target (mRNA or protein) (fraction of control) (GNA13): ≥ 1
TCTTTTATTTCATTTTATTT | 0.84 | 
TGAATGATGTCACGGCAGTC | 0.69 | 
TGAGAGGGAACTTTTGTGGC | 0.72 | 
TGAGTTGTCTCCCCAGGG |  | remaining target (mRNA or protein) (fraction of control) (GNA13): ≥ 1
TGCCTTCTCACTGTCTCCAT | 0.75 | 
TGCCTTTGGTGGGTCTTC |  | remaining target (mRNA or protein) (fraction of control) (GNA13): 0.51
TGCGCTGAATGATGTCACGG | 0.41 | 
TGCTCGGCCTCGCCACTC |  | remaining target (mRNA or protein) (fraction of control) (GNA13): 0.52
TGCTGCTGCTGTTTTATTTA | 0.62 | 
TGCTGCTGTTTTATTTATTT | ≥ 1 | 
TGGTTGCCTTCTCACTGTCT | 0.62 | 
TGTTCAGAGACTCTGTAA |  | remaining target (mRNA or protein) (fraction of control) (GNA13): 0.47
TGTTCTCAGTGTCCACAGCG | 0.39 | 
TGTTTCTTTTATTTCATTTT | ≥ 1 | 
TGTTTGCTGCTGCTGTTTTA | 0.96 | 
TTACTGAAAGTGAGAGGGAA | ≥ 1 | 

Sequence | remaining target (mRNA or protein) (fraction of control) (GNAS) | also measured
TTATTTCATTTGTTTCTTTT | 0.64 | 
TTATTTCATTTTATTTGTTT | 0.92 | 
TTCATTTGTTTCTTTTATTT | ≥ 1 | 
TTCATTTTATTTGTTTGCTG | 0.79 | 
TTCTTTTATTTCATTTTATT | ≥ 1 | 
TTGAGGTTGTCATGCAGA |  | remaining target (mRNA or protein) (fraction of control) (GNA13): 0.73
TTGCCTTCTCACTGTCTCCA | 0.56 | 
TTGCTGCTGCTGTTTTATTT | ≥ 1 | 
TTGTACATCACTGTAGCA |  | remaining target (mRNA or protein) (fraction of control) (GNA13): 0.41
TTGTTGGTTTGAGTTGTC |  | remaining target (mRNA or protein) (fraction of control) (GNA13): ≥ 1
TTGTTTCTTTTATTTCATTT | ≥ 1 | 
TTGTTTGCTGCTGCTGTTTT | 0.45 | 
TTTATTTCATTTGTTTCTTT | 0.93 | 
TTTATTTCATTTTATTTGTT | ≥ 1 | 
TTTCATTTGTTTCTTTTATT | ≥ 1 | 
TTTCATTTTATTTGTTTGCT | ≥ 1 | 
TTTCTTTTATTTCATTTTAT | ≥ 1 | 
TTTGCTGCTGCTGTTTTATT | 0.66 | 
TTTGGAACATCTAAGCAAGC | 0.97 | 
TTTGTTTCTTTTATTTCATT | 0.83 | 
TTTGTTTGCTGCTGCTGTTT | 0.96 | 
TTTTACTGAAAGTGAGAGGG | 0.9 | 
TTTTATTTCATTTTATTTGT | 0.91 | 
